The values that follow come from article PMC8591608, “DNDI-6148: A Novel Benzoxaborole Preclinical Candidate for the Treatment of Visceral Leishmaniasis” (Journal of Medicinal Chemistry, 2021).

In series [1] the test system is L. donovani. Nature of the series: L. donovani hamster model of VL. Type of series: in vivo. As for the experimental part:
(§1) L. infantum (MHOM/MA/67/ITMAP263) and L. donovani (MHOM/ET/67/L82) were maintained in the golden (Syrian) hamster (Mesocricetus auratus). Ex vivo amastigotes were collected from the spleen of an infected donor hamster using two centrifugation purification steps: 230g for 10 min, keeping the supernatant layer, and 4100g for 30 min, keeping the pellet. The spleen parasite burden was assessed using the Stauber technique.[25] For in vitro assays, the inoculum was prepared in RPMI-1640 medium, supplemented with 200 mM L-glutamine, 16.5 mM NaHCO3, and 5% inactivated fetal calf serum. For the in vivo model, an infection inoculum containing 2 × 10^7 amastigotes/100 μL was prepared in phosphate-buffered saline (PBS).
(§2) Female golden hamsters for the in vivo model of visceral leishmaniasis were purchased from Janvier, France (body weight 80–100 g). This study using laboratory rodents was carried out in strict accordance with all mandatory guidelines (EU directives, including the Revised Directive 2010/63/EU on the protection of Animals used for Scientific Purposes that came into force on 01/01/2013, and the declaration of Helsinki in its latest version) and was approved by the ethical committee of the University of Antwerp, Belgium (UA-ECD 2011-74). Female golden hamsters for the pharmacokinetic study were purchased from Vital River, Beijing, China. This study was conducted following institutional review and in accordance with institutional and national guidelines at WuXi AppTec (the Institutional Animal Care and Use Committee (IACUC)). Balb/c mice for the in vivo model of visceral leishmaniasis (LSHTM) were purchased from Charles River, U.K., and related studies were conducted under license PPL 70/8427 from the U.K. Home Office.
(§3) Female golden hamsters were randomly allocated to experimental groups of six animals each, based on body weight. At the start of the experiment (Day 0), each animal was infected with L. infantum or L. donovani inoculum, delivered by intracardial injection. Six hamsters were assigned to the vehicle-treated, infected control group. Six hamsters were assigned per group (1 group/compound) for the evaluation of compound and miltefosine. At Day 21 postinfection (21 dpi), all animals in each group were dosed orally for five (or ten) consecutive days (21–25 dpi): compound was dosed at 25–50 mg/kg b.i.d.; miltefosine was dosed at 40 mg/kg q.d. At Day 35 (10 days after the final oral dose), all animals were euthanized and autopsies were conducted. The study evaluated the following parameters. • 1. Adverse effects: all animals were observed daily for the occurrence/presence of adverse effects. • 2. Body weight: all animals were weighed twice per week to monitor general health. • 3. Parasite burden: amastigote burdens in each target organ (liver, spleen, and bone marrow) were determined at Day 35. The organs of individual animals were weighed (except for bone marrow). Impression smears were stained with Giemsa for microscopic examination of the total amastigote burden, defined as the mean number of amastigotes per cell multiplied by the number of cells counted (minimum 500 nuclei); the results were expressed as a percentage reduction in amastigote burden compared to vehicle-treated, infected control animals.

Series [2] deals with L. donovani. The series can be described thus: Intramacrophage L. donovani assay. Type of series: cell-based. The following applies: Leishmania donovani. The procedure: as §1
The assay was performed in sterile 96-well microtiter plates, each well containing 10 μL of the compound dilution and 190 μL of the PMM/amastigote inoculum (3 × 10^4 cells/4.5 × 10^5 parasites per well). Parasite multiplication was compared to untreated infected controls (100% growth) and uninfected controls (0% growth). After five-day incubation, total parasite burdens were microscopically assessed after staining the cells with a 10% Giemsa solution. The results were expressed as a percentage reduction in parasite burden compared to untreated control wells. EC50 values were determined using an extended dose range (2-fold compound dilutions, 8-point concentration curve). Miltefosine was used as the reference drug.[26] For selected compounds, this assay format was also run using the L. donovani inoculum.

Series [3] is described as follows: 14-day exploratory toxicology study in rats. The conditions noted are these: 14-day study.
Series [4] can be described thus: Hamster oral pharmacokinetic study. Type of series: in vivo, golden Syrian hamsters. The conditions noted are these: female, golden Syrian, plasma, single p.o. dose 50 mg/kg, read-out: AUC0–24 after single p.o. dose of 50 mg/kg. As for the experimental part: […] The K2-EDTA anticoagulant was added to blood samples collected from 0.25 to 36 h, which were processed to plasma and stabilized with phosphoric acid (1% final) before analysis by LC-MS/MS. PK parameters were calculated using WinNonlin software (version 6.3).

The next series deals with L. infantum. Nature of the series: L. infantum hamster model of VL. Type of series: in vivo. The conditions noted are these: for reduction in parasite burden, bone marrow, 10 days / reduction in parasite burden, liver, 10 days / reduction in parasite burden, spleen, 10 days: 25 mg/kg BID p.o. for 10 days. The procedure: as §1, §2
as §3, with “At Day 21 postinfection (21 dpi), all animals in each group were dosed orally for five (or ten) consecutive days (21–25 dpi): compound was dosed at 25–50 mg/kg b.i.d.; miltefosine was dosed at 40 mg/kg q.d.” left out

A short description of series [5]: Liver microsome stability, human. The class given is in vitro ADME. The following applies: for microsomal CLint at 1 μM: human liver microsomes, pH 7.4, Table 5, read-out: HLM Clint. A digest of the protocol:
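Compounds at 1 μM incubated at 37 °C with liver microsomes (Balb/c mouse, golden Syrian hamster, Beagle dog, human) plus NADPH regenerating system in 100 mM phosphate buffer pH 7.4, 0.4 or 0.8 mg/mL protein. Samples taken from 0 up to 60, 90 or 120 min, quenched in cold methanol and analysed by LC-MS/MS.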
Background: Liver microsomes are a subcellular fraction often used to study metabolism.

A short description of series [6]: Liver microsome stability, hamster. The class given is in vitro ADME. The following applies: golden (Syrian), hamster liver microsomes, pH 7.4, Table 5, read-out: HamLM Clint. As for the experimental part:
Tests were performed by WuXi AppTec, China. Test compounds (at 1 μM) or positive controls (testosterone, propafenone, and diclofenac) were incubated at 37 °C with liver microsomes from Balb/c mouse, golden (Syrian) hamster, Sprague-Dawley rat, Beagle dog, or human in the presence of a NADPH regenerating system and phosphate buffer (100 mM, pH 7.4) at 0.4 or 0.8 mg/mL microsomal protein. The samples were removed at time intervals from 0 to 60, 90, or 120 min and immediately mixed with cold methanol supplemented or not with acid (3% formic acid) and centrifuged prior to analysis by LC-MS/MS using tolbutamide or propranolol as internal standards.

SMILES strings stand for the structures.

The EC50 is the concentration giving half of the maximal effect. A lower EC50 goes with greater potency. On to `Cc1c(C(=O)Nc2ccc3c(c2)B(O)OC3)nnn1-c1ccccn1` [Compound 23, N-(1-Hydroxy-1,3-dihydrobenzo[c][1,2]oxaborol-6-yl)-5-methyl-1-(pyridin-2-yl)-1H-1,2,3-triazole-4-carboxamide], for which, in the series on L. donovani [1] (25 mg/kg BID for 10 days), the “reduction in parasite burden, bone marrow, 10 days” value (shortened to “reduction … bone marrow, 10 days”) turned out to be 99.6%; the “reduction in parasite burden, liver, 10 days” value (from here on “reduction … liver, 10 days”) was 99.9%; the “reduction in parasite burden, spleen, 10 days” value (shortened to “reduction … spleen, 10 days”) was 99.8%. In the series with L. donovani [1] (50 mg/kg BID for 5 days), the “reduction in parasite burden, bone marrow, 5 days” value (“reduction … bone marrow, 5 days” for short) is 83.4%; the “reduction in parasite burden, liver, 5 days” value (“reduction … liver, 5 days” below) turned out to be 99.3%; the “reduction in parasite burden, spleen, 5 days” value (“reduction … spleen, 5 days” for short) was 98.6%. Further, the EC50 with L. donovani [2] (Table 2, geometric mean of at least three independent assays) worked out at 1400 nM. For the same compound, the “no adverse effect limit” value in series [3] (male and female Sprague-Dawley rats) is reported as 50 mg/kg/day. Also, the AUC(0-t) in series [4] was 120000 ng·h/mL. In addition, in the series with L. infantum (25 mg/kg BID p.o. for 5 days), the “reduction … bone marrow, 5 days” value was 93.6%; the “reduction … liver, 5 days” value was 98.3%; the “reduction … spleen, 5 days” value is on record as 98.2%. For the same compound, in the series on L. infantum, the “reduction … bone marrow, 10 days” value is 99.4%; the “reduction … liver, 10 days” value is recorded as 100%; the “reduction … spleen, 10 days” value worked out at 99.9%. In the series on L. infantum (50 mg/kg BID p.o. for 5 days), the “reduction … bone marrow, 5 days” value is reported as 99.0%; the “reduction … liver, 5 days” value came to 99.8%; the “reduction … spleen, 5 days” value came out at 99.9%. Also, in series [5] (Table 10), the “microsome Clint” value was less than 11.9 μL/min/mg protein. The microsomal CLint at 1 μM in series [5] was less than 11.9 µL/min/mg. The microsomal CLint at 1 μM in series [6] is less than 11.9 µL/min/mg.
Turning to `Cc1c(-c2ccccn2)coc1C(=O)Nc1ccc2c(c1)B(O)OC2` [Compound 28, N-(1-Hydroxy-1,3-dihydrobenzo[c][1,2]oxaborol-6-yl)-3-methyl-4-(pyridin-2-yl)furan-2-carboxamide], in the series on L. donovani [1] (25 mg/kg BID for 5 days), the “reduction … bone marrow, 5 days” value was 94.5%; the “reduction … liver, 5 days” value worked out at 95.9%; the “reduction … spleen, 5 days” value came out at 95.9%. In the series with L. donovani [1] (50 mg/kg BID for 5 days), the “reduction … bone marrow, 5 days” value stood at 100%; the “reduction … liver, 5 days” value is 99.9%; the “reduction … spleen, 5 days” value is on record as 100%. Besides, in the series with L. donovani [2] (Table 6, geometric mean of at least two independent tests), the 50% effective concentration (EC50) amounted to 400 nM. Moreover, in series [3] (rats, daily dosing of 25 mg/kg), the toxicity finding entry was “significant multiorgan toxicity”. Further, the AUC(0-t) in series [4] is 21000 ng·h/mL. In the series with L. infantum (25 mg/kg BID p.o. for 5 days), the “reduction … bone marrow, 5 days” value came to 95.7%; the “reduction … liver, 5 days” value worked out at 98.9%; the “reduction … spleen, 5 days” value was determined as 97.8%. Also, in the series on L. infantum, the “reduction … bone marrow, 10 days” value turned out to be 84%; the “reduction … liver, 10 days” value was 99.4%; the “reduction … spleen, 10 days” value is recorded as 96.9%. Further, in the series on L. infantum (50 mg/kg BID p.o. for 5 days), the “reduction … bone marrow, 5 days” value was 99.1%; the “reduction … liver, 5 days” value is 99.9%; the “reduction … spleen, 5 days” value was determined as 99.9%. In series [5], the microsomal CLint at 1 μM was less than 11.9 µL/min/mg. Also, the microsomal CLint at 2 h, 1 µM in series [6] was found to be 40 µL/min/mg.
